ChEMBL document CHEMBL5335830, “Unusual Sesquiterpenes from Streptomyces olindensis DAUFPE 5622” (J Nat Prod, 2024)
Calls of active or inactive are those of the source.

Tests used:
[1] = system: Colon adenocarcinoma cell line; test: Cytotoxicity against human Colon adenocarcinoma cells; format: functional, cell-based
Escherichia coli = test: Antimicrobial activity against Escherichia coli; format: functional, organism-based
Bacillus subtilis = test: Antimicrobial activity against Bacillus subtilis; format: functional, organism-based
Candida albicans = test: Antifungal activity against Candida albicans; format: functional, organism-based

Measured: Activity

CC1=CC(=O)C[C@H]2[C@@H](C)[C@@](C)(CO)CC[C@]12C
inactive: all assays above
